{"source": "ChEMBL document CHEMBL2074415", "about": "“Expression and characterization of a functional rat liver Na+ bile acid cotransport system in COS-7 cells” (Am J Physiol, 1994)", "type_in_all_cases": "functional, cell-based", "conditions_in_all_cases": "monkey, cos-7, 100 µM", "key": {"[1]": {"target": "T1, Hepatic sodium/bile acid cotransporter (Rattus norvegicus, UniProt P26435)", "T1 sequence (P26435 whole entry)": "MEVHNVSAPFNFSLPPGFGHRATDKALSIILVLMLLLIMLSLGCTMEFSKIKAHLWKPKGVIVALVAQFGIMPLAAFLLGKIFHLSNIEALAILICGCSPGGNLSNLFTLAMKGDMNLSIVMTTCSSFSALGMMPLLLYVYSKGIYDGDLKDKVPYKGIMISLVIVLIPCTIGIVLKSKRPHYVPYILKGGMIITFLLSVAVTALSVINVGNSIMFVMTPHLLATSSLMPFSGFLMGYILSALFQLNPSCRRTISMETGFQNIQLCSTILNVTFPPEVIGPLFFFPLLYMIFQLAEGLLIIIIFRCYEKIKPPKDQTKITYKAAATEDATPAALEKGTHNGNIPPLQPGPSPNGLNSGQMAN", "experiment": "TP_TRANSPORTER: inhibition of Taurocholate uptake (Taurocholate: 5 uM, CDCA: 100 uM) in Ntcp-expressing COS-7 cells"}, "[2]": {"target": "T1, Hepatic sodium/bile acid cotransporter", "experiment": "TP_TRANSPORTER: inhibition of Taurocholate uptake (Taurocholate: 5 uM, TUDC: 100 uM) in Ntcp-expressing COS-7 cells"}, "[3]": {"target": "T1, Hepatic sodium/bile acid cotransporter", "experiment": "TP_TRANSPORTER: inhibition of Taurocholate uptake (Taurocholate: 5 uM, UDCA: 100 uM) in Ntcp-expressing COS-7 cells"}}}
{"smiles": "C[C@H](CCC(=O)O)[C@H]1CC[C@H]2[C@@H]3[C@H](O)C[C@@H]4C[C@H](O)CC[C@]4(C)[C@H]3CC[C@]12C", "note": "[CHENODIOL]", "values": [{"measurement": "Activity", "setting": "[1]", "value": "inhibitor [(at a rough estimate) 25 % of control]"}]}
{"smiles": "C[C@H](CCC(=O)NCCS(=O)(=O)O)[C@H]1CC[C@H]2[C@@H]3[C@@H](O)C[C@@H]4C[C@H](O)CC[C@]4(C)[C@H]3CC[C@]12C", "note": "[TAURURSODIOL]", "values": [{"measurement": "Activity", "setting": "[2]", "value": "inhibitor [(at a rough estimate) 25 % of control]"}]}
{"smiles": "C[C@H](CCC(=O)O)[C@H]1CC[C@H]2[C@@H]3[C@@H](O)C[C@@H]4C[C@H](O)CC[C@]4(C)[C@H]3CC[C@]12C", "note": "[URSODIOL]", "values": [{"measurement": "Activity", "setting": "[3]", "value": "inhibitor [(at a rough estimate) 45 % of control]"}]}
